Laboratory results as given in patent US10562909B2, “Fused quadracyclic compounds, compositions and uses thereof” (Tabomedex Biosciences, LLC, priority 2016, dated 2020).

Biological target: MAPKAPK2 (Homo sapiens, UniProt P49137)
Test: MK2 Enzymatic Assay
Assay type: biochemical
Settings: 0.5 nM MAPKAPK2, 3 μM ATP, 2 μM Ser/Thr4 peptide, 23° C., values given as concentration bins
Method in brief: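 Percent phosphorylation was derived from coumarin and fluorescein emissions relative to 0% and 100% phospho-peptide controls, read after a 120 min development step. Reactions used 2× stocks of 1 nM kinase, 4 μM peptide and 6 μM ATP; enzyme and peptide sat 20 min before a 120 min ATP reaction.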

Sequence of MAPKAPK2 (P49137 whole entry, species assumed): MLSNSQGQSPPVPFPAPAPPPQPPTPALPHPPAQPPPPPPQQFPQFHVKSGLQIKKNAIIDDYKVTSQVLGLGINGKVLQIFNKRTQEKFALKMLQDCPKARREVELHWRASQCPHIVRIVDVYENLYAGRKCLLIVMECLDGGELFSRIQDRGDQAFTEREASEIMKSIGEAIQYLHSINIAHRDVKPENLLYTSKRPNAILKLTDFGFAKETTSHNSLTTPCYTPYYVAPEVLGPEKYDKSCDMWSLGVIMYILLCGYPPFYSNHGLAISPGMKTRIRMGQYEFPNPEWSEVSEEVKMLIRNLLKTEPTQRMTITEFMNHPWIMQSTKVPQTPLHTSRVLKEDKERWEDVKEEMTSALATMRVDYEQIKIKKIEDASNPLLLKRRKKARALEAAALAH

Structure (SMILES)	IC50
Fc1ccc(-c2cc3n(c2)Cc2cc(N4CCC5(C4)CN(C4CCCC4)C5)ccc2-n2ccnc2-3)cc1 [Compound 375, 7-(2-cyclopentyl-2,6-diazaspiro[3.4]octan-6-yl)-12-(4-fluorophenyl)-9H-benzo[e]imidazo[2,1-c]pyrrolo[1,2-a][1,4]diazepine]	< 50 nM
Fc1ccc(-c2cc3n(c2)Cc2cc(N4CCC5(CNC5)C4)ccc2-n2ccnc2-3)cc1 [Compound 376, 12-(4-fluorophenyl)-7-(2,6-diazaspiro[3.4]octan-6-yl)-9H-benzo[e]imidazo[2,1-c]pyrrolo[1,2-a][1,4]diazepine]	< 50 nM
Fc1ccc(-c2cc3n(c2)Cc2cc(N4CC5(CCCNC5)C4)ccc2-n2ccnc2-3)cc1 [Compound 377, 12-(4-fluorophenyl)-7-(2,6-diazaspiro[3.5]nonan-2-yl)-9H-benzo[e]imidazo[2,1-c]pyrrolo[1,2-a][1,4]diazepine]	< 50 nM
Fc1ccc(-c2cc3n(c2)Cc2cc(N4CC5(CCNC5)C4)ccc2-n2ccnc2-3)cc1 [Compound 378, 12-(4-fluorophenyl)-7-(2,6-diazaspiro[3.4]octan-2-yl)-9H-benzo[e]imidazo[2,1-c]pyrrolo[1,2-a][1,4]diazepine]	< 50 nM
CN(C)[C@@H]1CCN(c2ccc3c(c2)Cn2cc(-c4ccc(F)cc4)cc2-c2nccn2-3)C1 [Compound 379, (R)-1-(12-(4-fluorophenyl)-9H-benzo[e]imidazo[2,1-c]pyrrolo[1,2-a][1,4]diazepin-7-yl)-N,N-dimethylpyrrolidin-3-amine]	< 50 nM
CN(C)[C@H]1CCN(c2ccc3c(c2)Cn2cc(-c4ccc(F)cc4)cc2-c2nccn2-3)C1 [Compound 380, (S)-1-(12-(4-fluorophenyl)-9H-benzo[e]imidazo[2,1-c]pyrrolo[1,2-a][1,4]diazepin-7-yl)-N,N-dimethylpyrrolidin-3-amine]	< 50 nM
CN(C)C1CCN(c2ccc3c(c2)Cn2cc(-c4ccc(F)cc4)cc2-c2nccn2-3)CC1 [Compound 381, 1-(12-(4-fluorophenyl)-9H-benzo[e]imidazo[2,1-c]pyrrolo[1,2-a][1,4]diazepin-7-yl)-N,N-dimethylpiperidin-4-amine]	< 50 nM
CNCC1CN(c2ccc3c(c2)Cn2cc(-c4ccc(F)cc4)cc2-c2nnnn2-3)C1 [Compound 386, 1-(1-(12-(4-fluorophenyl)-9H-benzo[e]pyrrolo[1,2-a]tetrazolo[5,1-c][1,4]diazepin-7-yl)azetidin-3-yl)-N-methylmethanamine]	< 50 nM
CNCC1CCN(c2ccc3c(c2)Cn2cc(-c4ccc(F)cc4)cc2-c2nnnn2-3)C1 (stereo not shown) [Compound 388, 1-(1-(12-(4-fluorophenyl)-9H-benzo[e]pyrrolo[1,2-a]tetrazolo[5,1-c][1,4]diazepin-7-yl)pyrrolidin-3-yl)-N-methylmethanamine]	< 50 nM
N[C@@H]1CCCN(c2ccc3c(c2)Cn2cc(-c4ccc(F)cc4)cc2-c2nnnn2-3)C1 [Compound 389, (R)-1-(12-(4-fluorophenyl)-9H-benzo[e]pyrrolo[1,2-a]tetrazolo[5,1-c][1,4]diazepin-7-yl) piperidin-3-amine]	< 50 nM
N[C@H]1CCCN(c2ccc3c(c2)Cn2cc(-c4ccc(F)cc4)cc2-c2nnnn2-3)C1 [Compound 390, (S)-1-(12-(4-fluorophenyl)-9H-benzo[e]pyrrolo[1,2-a]tetrazolo[5,1-c][1,4]diazepin-7-yl) piperidin-3-amine]	50 to 100 nM
CN1CC2(CCN(c3ccc4c(c3)Cn3cc(-c5ccc(F)cc5)cc3-c3nnnn3-4)C2)C1 [Compound 392, 12-(4-fluorophenyl)-7-(2-methyl-2,6-diazaspiro[3.4]octan-6-yl)-9H-benzo[e]pyrrolo[1,2-a] tetrazolo[5,1-c][1,4]diazepine]	< 50 nM
CN(C)C[C@@H]1CCN(c2ccc3c(c2)Cn2cc(-c4ccc(F)cc4)cc2-c2nnnn2-3)C1 [Compound 393, (S)-1-(1-(12-(4-fluorophenyl)-9H-benzo[e]pyrrolo[1,2-a]tetrazolo[5,1-c][1,4]diazepin-7-yl)pyrrolidin-3-yl)-N,N-dimethylmethanamine]	< 50 nM
CN(C)C[C@H]1CCN(c2ccc3c(c2)Cn2cc(-c4ccc(F)cc4)cc2-c2nnnn2-3)C1 [Compound 394, (R)-1-(1-(12-(4-fluorophenyl)-9H-benzo[e]pyrrolo[1,2-a]tetrazolo[5,1-c][1,4]diazepin-7-yl)pyrrolidin-3-yl)-N,N-dimethylmethanamine]	50 to 100 nM
C[C@@H]1CN(c2ccc3c(c2)Cn2cc(-c4ccc(F)cc4)cc2-c2nnnn2-3)C[C@H](C)N1 [Compound 395, 7-(cis-3,5-dimethylpiperazin-1-yl)-12-(4-fluorophenyl)-9H-benzo[e]pyrrolo[1,2-a]tetrazolo[5,1-c][1,4]diazepine]	< 50 nM
Fc1ccc(-c2cc3n(c2)Cc2cc(N4CCC5(CNC5)C4)ccc2-n2nnnc2-3)cc1 [Compound 398, 12-(4-fluorophenyl)-7-(2,6-diazaspiro[3.4]octan-6-yl)-9H-benzo[e]pyrrolo[1,2-a]tetrazolo[5,1-c][1,4]diazepine]	< 50 nM
Fc1ccc(-c2cc3n(c2)Cc2cc(N4CCC5(CC4)CNC5)ccc2-n2nnnc2-3)cc1 [Compound 402, 12-(4-fluorophenyl)-7-(2,7-diazaspiro[3.5]nonan-7-yl)-9H-benzo[e]pyrrolo[1,2-a]tetrazolo[5,1-c][1,4]diazepine]	< 50 nM
Fc1ccc(-c2cc3n(c2)Cc2cc(N4CC5(CCNC5)C4)ccc2-n2nnnc2-3)cc1 [Compound 403, 12-(4-fluorophenyl)-7-(2,6-diazaspiro[3.4]octan-2-yl)-9H-benzo[e]pyrrolo[1,2-a]tetrazolo[5,1-c][1,4]diazepine]	50 to 100 nM
CN(C)[C@@H]1CCN(c2ccc3c(c2)Cn2cc(-c4ccc(F)cc4)cc2-c2nnnn2-3)C1 [Compound 406, (R)-1-(12-(4-fluorophenyl)-9H-benzo[e]pyrrolo[1,2-a]tetrazolo[5,1-c][1,4]diazepin-7-yl)-N,N-dimethylpyrrolidin-3-amine]	< 50 nM
CN(C)[C@H]1CCN(c2ccc3c(c2)Cn2cc(-c4ccc(F)cc4)cc2-c2nnnn2-3)C1 [Compound 407, (S)-1-(12-(4-fluorophenyl)-9H-benzo[e]pyrrolo[1,2-a]tetrazolo[5,1-c][1,4]diazepin-7-yl)-N,N-dimethylpyrrolidin-3-amine]	50 to 100 nM
CN(C)C[C@H]1CN(c2ccc3c(c2)Cn2cc(-c4ccc(F)cc4)cc2-c2ncnn2-3)C[C@H]1O [Compound 415, (3S,4S)-4-((dimethylamino)methyl)-1-(12-(4-fluorophenyl)-9H-benzo[e]pyrrolo[1,2-a][1,2,4]triazolo[5,1-c][1,4]diazepin-7-yl)pyrrolidin-3-ol]	100 to 200 nM

More lines, now with the values ahead:

IC50	Structure (SMILES)
100 to 200 nM	CN[C@@H]1CCN(c2ccc3c(c2)Cn2cc(-c4ccc(F)cc4)cc2-c2ncnn2-3)C1 [Compound 409, (R)-1-(12-(4-fluorophenyl)-9H-benzo[e]pyrrolo[1,2-a][1,2,4]triazolo[5,1-c][1,4]diazepin-7-yl)-N-methylpyrrolidin-3-amine]
50 to 100 nM	CN[C@H]1CCN(c2ccc3c(c2)Cn2cc(-c4ccc(F)cc4)cc2-c2ncnn2-3)C1 [Compound 410, (S)-1-(12-(4-fluorophenyl)-9H-benzo[e]pyrrolo[1,2-a][1,2,4]triazolo[5,1-c][1,4]diazepin-7-yl)-N-methylpyrrolidin-3-amine]
< 50 nM	CN1CC2(CCN(c3ccc4c(c3)Cn3cc(-c5ccc(F)cc5)cc3-c3ncnn3-4)C2)C1 [Compound 412, 12-(4-fluorophenyl)-7-(2-methyl-2,6-diazaspiro[3.4]octan-6-yl)-9H-benzo[e]pyrrolo[1,2-a][1,2,4]triazolo[5,1-c][1,4]diazepine]
< 50 nM	CN(C)C[C@@H]1CCN(c2ccc3c(c2)Cn2cc(-c4ccc(F)cc4)cc2-c2ncnn2-3)C1 [Compound 413, (S)-1-(1-(12-(4-fluorophenyl)-9H-benzo[e]pyrrolo[1,2-a][1,2,4]triazolo[5,1-c][1,4]diazepin-7-yl)pyrrolidin-3-yl)-N,N-dimethylmethanamine]
50 to 100 nM	CN(C)C[C@H]1CCN(c2ccc3c(c2)Cn2cc(-c4ccc(F)cc4)cc2-c2ncnn2-3)C1 [Compound 414, (R)-1-(1-(12-(4-fluorophenyl)-9H-benzo[e]pyrrolo[1,2-a][1,2,4]triazolo[5,1-c][1,4]diazepin-7-yl)pyrrolidin-3-yl)-N,N-dimethylmethanamine]
< 50 nM	CN(C)C[C@@H]1CN(c2ccc3c(c2)Cn2cc(-c4ccc(F)cc4)cc2-c2ncnn2-3)C[C@@H]1O [Compound 416, (3R,4R)-4-((dimethylamino)methyl)-1-(12-(4-fluorophenyl)-9H-benzo[e]pyrrolo[1,2-a][1,2,4]triazolo[5,1-c][1,4]diazepin-7-yl)pyrrolidin-3-ol]
50 to 100 nM	CN(C)[C@@H]1CN(c2ccc3c(c2)Cn2cc(-c4ccc(F)cc4)cc2-c2ncnn2-3)C[C@H]1O [Compound 417, (3R,4R)-4-(dimethylamino)-1-(12-(4-fluorophenyl)-9H-benzo[e]pyrrolo[1,2-a][1,2,4]triazolo[5,1-c][1,4]diazepin-7-yl)pyrrolidin-3-ol]
100 to 200 nM	CN(C)[C@H]1CN(c2ccc3c(c2)Cn2cc(-c4ccc(F)cc4)cc2-c2ncnn2-3)C[C@@H]1O [Compound 418, (3S,4S)-4-(dimethylamino)-1-(12-(4-fluorophenyl)-9H-benzo[e]pyrrolo[1,2-a][1,2,4]triazolo[5,1-c][1,4]diazepin-7-yl)pyrrolidin-3-ol]
< 50 nM	C[C@H](CO)NC[C@@H]1CCN(c2ccc3c(c2)Cn2cc(-c4ccc(F)cc4)cc2-c2ncnn2-3)C1 [Compound 419, (R)-2-((((S)-1-(12-(4-fluorophenyl)-9H-benzo[e]pyrrolo[1,2-a][1,2,4]triazolo[5,1-c][1,4]diazepin-7-yl)pyrrolidin-3-yl)methyl)amino)propan-1-ol]
< 50 nM	C[C@H](CO)NC[C@H]1CCN(c2ccc3c(c2)Cn2cc(-c4ccc(F)cc4)cc2-c2ncnn2-3)C1 [Compound 420, (R)-2-((((R)-1-(12-(4-fluorophenyl)-9H-benzo[e]pyrrolo[1,2-a][1,2,4]triazolo[5,1-c][1,4]diazepin-7-yl)pyrrolidin-3-yl)methyl)amino)propan-1-ol]
